Test results as given in patent US7417109B2, “Polymers for delivering nitric oxide in vivo” (Duke University, priority 1996, dated 2008).

Tests used:
[1] = cited from earlier work
[2] = Half-life and NO delivery in physiological solution (NO by method of Saville); assay type: physicochemical
Experimental: In addition, the half-lives for these compositions in physiological solution were measured. The half-life is time required for the composition to lose one half of its bound NO. The amount of NO in the composition is determined by the method of Saville, as described in Example 13.
The concentration of R—S—NO groups in a sample is based on the method reported in Saville, Analyst 83:620 (1958). By this method, R—S—NO groups are converted into an azo dye. The concentration of this dye is determined by measuring the absorbance at 540 nm (ε˜50,000 M^−1 cm^−1). The procedure is as follows:
A given volume (50 μl−1 m) of the sample to be assayed is added to an equivalent volume of solution A and solution B. The two samples are set aside for 5 minutes to allow formation of the diazonium salt, after which an equivalent volume of solution C is added to each mixture. Color formation, indicative of the azo dye product, is usually complete by 5 minutes. The sample absorbance is then read spectrophotometrically at 540 nm. The RSNO is quantified as the difference in absorbance between solution B and A. (i.e. B−A). In the event that the background nitrite concentration is high (i.e. increased background in A), the accuracy of the measurement can be increased by the addition of an equivalent volume of 0.5% ammonium sulfamate in acid (45 mM) 5 minutes prior to the addition of sulfanilamide. […]

SMILES | lifetime in physiological solution [1] | time able to deliver NO [2]
CC(C)(SN=O)C(N)C(=O)O (racemic) [S-nitroso-D,L-penicillamine] | no more than about an hour | –
CC(C)(SN=O)[C@H](N)C(=O)O [S-nitroso-penicillamine] | – | no more than one
N[C@@H](CSN=O)C(=O)O [S-nitrosocysteine] | no more than about an hour | –
